According to patent EP0032564A1, “Pharmaceutical use of caroverine and/or salts of caroverine, as well as salts of caroverine with xanthine acid remainders and nicotinic acid remainder” (MEDICHEMIE AG, priority 1979, dated 1981):

Tests used:
[1] = system: isolierte, nach Langendorff perfundierte Meerschweinchenherz; assay: Isolated Langendorff-perfused guinea pig heart: coronary flow, contraction amplitude, heart rate; parameters: species or system Meerschweinchen
From the text: Meerschweinchen wurden durch Genickschlag getötet, der Thorax eröffnet, der Herzbeutel aufgeschnitten, die Aorta mit einem Faden angeschlungen und in der pars ascendens angeschnitten. Nach Einbinden einer Glaskanüle in die Aorta wurde die aorta pulmonalis eröffnet und anschliessend das Coronargefässsystem durch die Aortenkanüle unter leichten Druck mit einer Spitze durchgespült. Nach Dulchirennung aller anhängenden Gefässe wurde das Herz an der Aortenkanüle in die feuchte Kammer einer modifizierten Langendorff-Apparatur gehängt und mit carbogengesättigter Tyrodelösung von 37^uC mit einem Druck von 55 cm H20 perfundiert. An der Herzspitze wurde eine Serre fine angebracht, die über einen Faden mit einem zweiarmigen Hebel verbunden war, der die Kontraktionsamplitude auf einem Russkymographen aufzeichnete. Alle Herzen waren mit 4 g belastet. Der Schreibhebel passierte bei seinen Ausschlägen die Lichtschranke einer Fotozelle. Dadurch konnte die Herzfrequenz über einen Totalisator (nach FLEISCH, Firma B. Braun, Melsungen) registriert werden. Die aus dem rechten Vorhof frei abfliessende Perfusionslösung tropfte auf einen elektrischen Kontakt. Die Tropfenzahl wurde mittels eines zweiten Totalisators aufgezeichnet,und nach Eichung in ml/min der Coronardurchfluss bestimmt.
Nach Fertigstellung der Präparate wurde bis zum Versuchsbeginn 45 Min. gewartet. Nach dieser Zeit hatten Kontaktionsamplitude, Frequenz und Coronardurchblutung ein konstantes Niveau erreicht.
Caroverin wurde in Einzeldosen von 1, 10, 100 sowie 1000 ug verabreicht. Theophyllin wurde in Dosen von 10, 100 sowie 1000 ug gegeben. In allen Versuchen wurden Caroverin und Theophyllin abwechselnd verabreicht, wobei jeweils eine Zeitspanne von 5 Min. zwischen zwei Einzelinjektionen lag. Alle Injektionsvolumina betrugen 0.1 ml.
Die Effekte der Substanzen wurden ermittelt,indem in jedem Versuch bei jeder Einzeldosis die maximalen Zu- bzw. Abnahmen der entsprechenden Parameter gegenüber dem jeweiligen Ausganswert bestimmt und diese Einzeleffekte gemittelt wurden. Statistische Signifikanzberechnungen erfolgten nach dem t-Test (student's-Test).

Ca^++-Einstrom = assay: Isolated guinea pig papillary muscle: intracellular action potentials and isometric mechanograms; parameters: species or system Meerschweinchen
From the text: Die Aktionspotentiale […] an ein und derselben Myocardfaser gewonnen. Die einzelnen Konzentrationen kamen jeweils für die Dauer von 40 Minuten zur Anwendung.

[2] = system: K^+-Kontraktur isolierter Coronararterienstreifen; assay: K+ contracture of isolated pig coronary artery strips; parameters: species or system Schwein
From the text: Partielle Restitution der mechanischen Spannungsentwicklung durch Extra-Calcium.

[3] = system: glatten Coronar-Muskulatur; assay: k-Strophanthin-induced tone of pig coronary smooth muscle; parameters: species or system Schwein; settings: higher concentration of k-Strophanthin, partial restitution by raised extracellular Ca++ (Fig. 15)
From the text: Teilweise Restitution des Coronartonus durch Steigerung der extra-cellulären Ca^++-Konzentration.

SMILES: CCN(CC)CCn1c(=O)c(Cc2ccc(OC)cc2)nc2ccccc21 [Caroverin, 1-(2-diäthylaminoäthyl)-3-(p-methoxybenzyl)-1,2-dihydroquinoxalon-2]
- Herzfrequenz ([1]; 100 µg, in all experiments): langanhaltenden frequenzsenkenden Effekt
- Kontraktionsamplitude ([1]; 100 µg, p < 0.01): verminderte die Kontraktionsamplitude signifikant
- Coronardurchfluss ([1]; single doses Caroverin 1-1000 ug, Theophyllin 10-1000 ug, 1000 Theophyllin about equal to 100 Caroverin): dosisabhängige, coronardurchflusssteigernde Wirkung
- elektrische Parameter Ca^++-getragener Aktionspotentiale (AP-Amplitude, max. Aufstrichsteilheit, AP-Dauer) und zugehörige Mechanogramme (Ca^++-Einstrom; about the same concentration range (10 mg/l)): hemmt
- Blockade des Ca^++-Einstroms während der Erregung (Ca^++-Einstrom; electrically stimulated isolated guinea pig papillary muscle, 10 mg Caroverin/l (Fig. 12)): ~50%
- transmembranäre Na- und K^+-Fluxe (Ca^++-Einstrom; isolated guinea pig papillary muscle, 10 mg Caroverin/l): ohne die transmembranären Na - und K^+-Fluxe zu reduzieren
- inhibition at 0.25 µg/mL ([2]; Sus scrofa, pig, 0,25 mg Caroverin/l (Fig. 13 and 14), read-out: elektromechanische Entkoppelung K^+-depolarisierter Coronararterienstreifen): ~50%
- K^+-Kontraktur isolierter Coronararterienstreifen ([2]; pig, rising concentrations 0,05, 0,1 and 0,5 mg/l, partial restitution by extra calcium (Fig. 13)): Hemmungen der K^+-Kontraktur
- K^+-Kontraktur isolierter Coronararterien-Streifen ([2]; pig, rising concentrations 1,0, 2,0 and 5,0 mg/l, partial restitution by extra calcium at 1 mg/l (Fig. 14)): Hemmung der K^+-Kontraktur
- tonussteigernde Effekte von k-Strophanthin [3]: Neutralisation der tonussteigernden Effekte
